Measured values from US9173935B2, “Phospholipid drug analogs” (Telormedix SA, priority 2010, dated 2015).
Where two headings read alike, the source gives them in different places.

Experiments:
[1] = Storage stability by HPLC (solid or chloroform solution; temperature, light); assay type: physicochemical
Procedure: At this point, a stability study was conducted on batch CH730/16/8g.
The samples were analyzed at t=0 and after 20 days.

[2] = Plasma stability, second experiment, human plasma; details: human plasma, second experiment
Procedure: Second experiment: Test compounds (5 mM in DMSO) were diluted at the final concentration of 250 μM with ACN-MeOH 1:1.
Human plasma (1.180 ml) was spiked with 20 μl of 250 μM solution of the compound (4.16 μM final concentration) and aliquots of 50 μl volume were taken at 0, 15, 30, 60, 120 min and 5 hrs, and immediately quenched with 200 μl of a solution of Verapamil 250 ng/ml (internal standard, I.S.) in ACN:MeOH 95:5. Samples were then centrifuged for 20 min at 3000 rpm at 10° C. and analyzed as reported below. […] The supernatant fractions were analyzed by LC/MS/MS. Zero-time incubations were used as 100% values.
Stability was calculated as percentage remaining of the area ratio compound/I.S. at each time point vs. area ratio compound/I.S. at time 0 min.

whole blood = test: Cytokine secretion in human whole blood assay (ELISA); assay type: cell-based
Procedure: A volume of approximately 55 mL fresh whole blood was drawn in heparinized Vacutainers from three healthy adult anonymous volunteers as described (J. A. Ida, Journal of Immunol Methods, 310, 2006, 86-99). […] Before drawing the blood, the compounds were added to 96 well round bottom plates in a 10× diluted sample at 20 ul. The compounds were diluted in RPMI media without serum but with antibiotics. Antibiotics were added at a 10× concentration. After drawing the blood, the whole blood sample was gently mixed to obtain a homogeneous sample, and 180 ul was added to each well.
After 6 hours and 24 hours incubation, plasma was removed for ELISA (IL-6, IL-10, IL-12p40 and IFN-alpha). ELISA was made at the 6 and 24 hours time point for all concentrations. After 24 hours incubation with selected compound concentrations, cells were analyzed for activation markers by FACS.
All compounds were setup in concentrations at 0-0.01-0.03-0.1-0.5-2.0-10.0 micromolar as the final concentration. Vehicle control was DMSO control, where we used the highest concentration used for the compounds. After addition of blood, all plates were gently agitated at 37° C. and 5% CO2 until harvest. The samples were removed after 6 or 24 hours incubation, and pooled into appropriate tubes (2 ml).
Concentrations of cytokines were determined by ELISA from R&D Systems. The results were analyzed in Graph Pad Prism in order to prepare dose-response
curves, and for determination of EC50 values. FACS analysis was made by using Becton-Dickinson FACSDiva software and subsequently illustrated in Graph Pad Prism.

[3] = test system: HLA-DR+/CD11c+/CD123- mDCs; test: FACS analysis of myeloid DC activation in whole blood; assay type: cell-based, human; details: 24 hours, 0.1 and 0.5 uM, three donors
Procedure: A flow cytometric analysis was performed on whole blood from three donors after treatment with two compound concentrations for 24 h. The FACS analysis for donor 1 and donor 2 was made on another day than donor 3. The compound concentrations were as follows:
The FACS analysis was used to identify whether the test compounds could induce activation of B cells, and two different subsets of dendritic cells, namely the myeloid CD11c+/CD123− DCs and the plasmacytoid CD11c−/CD123+ DCs. The following markers were studied to identify the activation status of the different subsets:
The FACS staining was performed according to the manufacturer's instructions. Lysis of red blood cells was performed before FACS staining in order to minimize auto-florescence. To include as many B cells and DCs in the study as possible the FACS analyses were performed on 500,000 cells in total for each staining. A P1 gate was set only to include relevant cells on FSC vs. SSC (see FIGS. 12-15). The results of the individual analysis were present as Mean Fluorescence Intensity
The analysis of myeloid DCs was based on HLA-DR+/CD11c+/CD123-cells, thus all analyzed cells was included in the HLA-DR+ (P3) gate and CD11c+/CD123− (Q4) gate (see gates in FIGS. 13-15).

[4] = Single dose intravenous acute toxicity study in rats; assay type: in vivo, Sprague Dawley rat; details: for Mortality: preliminary phase, one male and one female; for Mortality and signs of toxicity: main phase
Procedure: An additional group, similarly composed, received the vehicle alone and acted as a control. […] Clinical signs were limited to piloerection and reduced activity, observed on the day of dosing.
In the main phase, 5 male and 5 female animals were dosed at 90 mg/kg and observed for a period of 14 days. A second group, similarly constituted, received the vehicle alone and acted as control. […] In addition, one male and one female dosed at 90 mg/kg were found dead on Day 2 of the study. Twitches, ataxia, piloerection, reduced activity and hunched posture were the major signs observed in animals before death. […] Piloerection was observed up to Day 3 of the study. A second group, similarly composed, was dosed at 80 mg/kg.

CYP2C9 = CYP2C9 (Homo sapiens (Human), UniProt P11712); test: Fluorescent High Throughput P450 assay, CYP2C9; assay type: biochemical; details: substrate MFC; read-out: CYP2C9 IC50 (Mean ± S.D.)
CYP2C9, sequence (P11712 whole entry, looked up): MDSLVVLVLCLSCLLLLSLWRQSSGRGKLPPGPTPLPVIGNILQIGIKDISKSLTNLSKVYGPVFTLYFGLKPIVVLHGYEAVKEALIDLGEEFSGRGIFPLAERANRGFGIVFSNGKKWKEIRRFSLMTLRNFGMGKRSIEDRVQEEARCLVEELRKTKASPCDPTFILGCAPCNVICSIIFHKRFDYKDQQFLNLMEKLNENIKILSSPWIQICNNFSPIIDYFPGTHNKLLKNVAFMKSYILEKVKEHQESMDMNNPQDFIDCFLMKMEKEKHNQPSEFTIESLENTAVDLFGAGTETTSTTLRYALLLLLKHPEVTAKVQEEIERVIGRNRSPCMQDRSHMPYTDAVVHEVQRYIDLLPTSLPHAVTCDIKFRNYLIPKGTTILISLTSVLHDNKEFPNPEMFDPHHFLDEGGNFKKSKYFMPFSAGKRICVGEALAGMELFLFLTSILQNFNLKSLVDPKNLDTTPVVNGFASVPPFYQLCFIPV
Procedure: (§1) Inhibition of the P450 isoforms was measured in specific assays using specific substrates that become fluorescent upon CYP metabolism. Compounds, dissolved in ACN (acetonitrile) (CYP2E1, CYP2C8, CYP2B6, CYP3A5) or DMSO (all remaining isoforms), were tested in duplicate (n=2) in concentration-response curves (eight concentrations) in a 96-well plate containing incubation/NADPH regenerating buffer. Specific isoenzymes and substrates were added and incubated at 37° C. Reactions were terminated at different times, depending on the assays, and plates read on a Fluoroskan Ascent at the appropriate emission/excitation wavelengths. Concentration-response curves performed in duplicate for known inhibitors for each isoenzyme were tested in every assay as positive control.

CYP3A5 = CYP3A5 (Homo sapiens (Human), UniProt P20815); test: Fluorescent High Throughput P450 assay, CYP3A5; assay type: biochemical; details: substrate BFC; read-out: CYP3A5 IC50 (Mean ± S.D.)
CYP3A5, sequence (P20815 whole entry, looked up): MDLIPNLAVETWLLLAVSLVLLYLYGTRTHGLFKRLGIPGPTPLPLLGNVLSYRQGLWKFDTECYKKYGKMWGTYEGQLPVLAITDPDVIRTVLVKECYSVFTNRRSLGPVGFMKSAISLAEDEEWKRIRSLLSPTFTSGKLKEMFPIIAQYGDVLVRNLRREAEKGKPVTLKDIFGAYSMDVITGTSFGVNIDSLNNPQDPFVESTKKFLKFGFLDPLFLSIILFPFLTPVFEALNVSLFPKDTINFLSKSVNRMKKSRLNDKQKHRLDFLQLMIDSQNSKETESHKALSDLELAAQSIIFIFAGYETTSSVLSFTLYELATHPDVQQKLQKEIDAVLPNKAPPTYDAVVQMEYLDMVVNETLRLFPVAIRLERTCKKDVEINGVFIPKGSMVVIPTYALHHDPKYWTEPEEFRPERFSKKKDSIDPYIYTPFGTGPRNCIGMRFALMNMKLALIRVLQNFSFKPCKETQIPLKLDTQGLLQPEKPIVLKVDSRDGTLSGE
Procedure: as §1

CYP2C8 = CYP2C8 (Homo sapiens (Human), UniProt P10632); test: Fluorescent High Throughput P450 assay, CYP2C8; assay type: biochemical; details: substrate DBF; head of Table 31 prints CYP2CB; read-out: CYP2C8 IC50 (Mean ± S.D.)
CYP2C8, sequence (P10632 whole entry, looked up): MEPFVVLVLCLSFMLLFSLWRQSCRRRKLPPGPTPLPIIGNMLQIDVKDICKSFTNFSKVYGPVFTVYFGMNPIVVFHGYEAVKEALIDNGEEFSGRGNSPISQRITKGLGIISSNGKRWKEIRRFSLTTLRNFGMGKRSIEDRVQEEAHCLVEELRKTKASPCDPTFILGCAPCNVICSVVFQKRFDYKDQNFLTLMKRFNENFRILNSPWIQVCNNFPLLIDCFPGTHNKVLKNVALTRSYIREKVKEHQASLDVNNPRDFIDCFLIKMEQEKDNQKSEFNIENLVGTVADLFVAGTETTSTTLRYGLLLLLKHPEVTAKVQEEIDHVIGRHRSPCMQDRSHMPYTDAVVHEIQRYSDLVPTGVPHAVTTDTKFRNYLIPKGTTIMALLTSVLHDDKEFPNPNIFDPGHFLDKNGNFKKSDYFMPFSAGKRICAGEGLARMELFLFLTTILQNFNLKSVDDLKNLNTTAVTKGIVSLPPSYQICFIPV
Procedure: as §1

CCCCCCCCCCCC(=O)OCC(COP(=O)(O)OCCNC(=O)c1ccc(Cn2c(=O)[nH]c3c(N)nc(OCCOC)nc32)cc1)OC(=O)CCCCCCCCCCC (stereo not drawn) [SC12]
HPLC RRT = 1 ([1]; Solid, RT and light, t = 20 days): RRT = 1: 87.8%
HPLC RRT = 1 ([1]; Solid, external T and light, t = 20 days): RRT = 1: 84.0%
HPLC RRT = 1 ([1]; Solution in CHCl3, RT and light, t = 20 days): RRT = 1: 88.0%
HPLC RRT = 1 ([1]; t = 0): RRT = 1: 90.3%
% Remaining ([2]; 0 min): 100%
% Remaining ([2]; 15 min): 112.6 ± 1.0%
% Remaining ([2]; 30 min): 110.0 ± 1.0%
% Remaining ([2]; 60 min): 96.7 ± 6.3%
% Remaining ([2]; 120 min): 102.1 ± 8.7%
Plasma stability classification ([2]; up to 120 min): stable
IL-10 production (whole blood; 6 hours incubation): no IL-10 production was seen
EC50 (whole blood; Donor 1, read-out: EC50-IFN-alpha, 24 h Incubation): 0.2 µM
EC50 (whole blood; Donor 1, read-out: EC50-IL-6, 24 h Incubation): 0.22 µM
EC50 (whole blood; Donor 1, read-out: EC50-IL-10, 24 h Incubation): 1.34 µM
EC50 (whole blood; Donor 1, read-out: EC50-IL-12p40, 24 h Incubation): 4.1 µM
EC50 (whole blood; Donor 2, read-out: EC50-IFN-alpha, 24 h Incubation): 0.11 µM
EC50 (whole blood; Donor 2, read-out: EC50-IL-6, 24 h Incubation): 0.06 µM
EC50 (whole blood; Donor 2, read-out: EC50-IL-10, 24 h Incubation): 0.41 µM
EC50 (whole blood; Donor 2, read-out: EC50-IL-12p40, 24 h Incubation): 1.42 µM
EC50 (whole blood; Donor 3, read-out: EC50-IFN-alpha, 24 h Incubation): 0.24 µM
EC50 (whole blood; Donor 3, read-out: EC50-IL-6, 24 h Incubation): 0.17 µM
EC50 (whole blood; Donor 3, read-out: EC50-IL-10, 24 h Incubation): 9 µM
EC50 (whole blood; Donor 3, read-out: EC50-IL-12p40, 24 h Incubation): 14.2 µM
EC50 (whole blood; read-out: EC50-IFN-alpha, 6 h Incubation, Donor 1): 0.98 µM
EC50 (whole blood; read-out: EC50-IFN-alpha, 6 h Incubation, Donor 2): 0.83 µM
EC50 (whole blood; read-out: EC50-IFN-alpha, 6 h Incubation, Donor 3): 1.66 µM
EC50 (whole blood; read-out: EC50-IL-6, 6 h Incubation, Donor 1): 0.57 µM
EC50 (whole blood; read-out: EC50-IL-6, 6 h Incubation, Donor 2): 0.18 µM
EC50 (whole blood; read-out: EC50-IL-6, 6 h Incubation, Donor 3): 0.37 µM
EC50 (whole blood; read-out: EC50-IL-12, 6 h Incubation (IL-12p40), Donor 2): 2.36 µM
EC50 (whole blood; read-out: EC50-IL-12, 6 h Incubation (IL-12p40), Donor 3): 3.56 µM
CCR7 expression on mDCs [3]: less potent stimulator of CCR7 expression
CD80 expression on mDCs [3]: induced a noteworthy CD80 expression in all three donors
CD86 expression on mDCs [3]: induces a weak CD86 expression in donor 2 and 3, but not in donor 1
Mortality ([4]; 76 mg/kg i.v.): No mortality occurred
Mortality and signs of toxicity ([4]; 80 mg/kg i.v.): no mortality and no signs of toxicity
Mortality and signs of toxicity ([4]; 90 mg/kg i.v., 5 male and 5 female): induced mortality or significant signs of toxicity
Mortality ([4]; 100 mg/kg i.v.): Both animals died at dosing
Maximum tolerated dose ([4]; single intravenous dose): 80 mg/kg
IC50 (CYP2C9): 33.4 ± 0.3 µM
IC50 (CYP3A5): 10.5 ± 0.5 µM
IC50 (CYP2C8): > 100 µM
